Publication PMC12155096 (International Journal of Molecular Sciences, 2025)
Counter-ions that a name gives are not always drawn. Like-named read-outs stand apart in the source and are kept apart here.

Legend:
[1] = biological target: Photinus pyralis (firefly) luciferase (Photinus pyralis, UniProt P08659); assay: biochemical; format: biochemical
[2] = biological target: T1, human CYP1A2 (Homo sapiens, UniProt P05177); assay: biochemical
T1 sequence (P05177 1-516): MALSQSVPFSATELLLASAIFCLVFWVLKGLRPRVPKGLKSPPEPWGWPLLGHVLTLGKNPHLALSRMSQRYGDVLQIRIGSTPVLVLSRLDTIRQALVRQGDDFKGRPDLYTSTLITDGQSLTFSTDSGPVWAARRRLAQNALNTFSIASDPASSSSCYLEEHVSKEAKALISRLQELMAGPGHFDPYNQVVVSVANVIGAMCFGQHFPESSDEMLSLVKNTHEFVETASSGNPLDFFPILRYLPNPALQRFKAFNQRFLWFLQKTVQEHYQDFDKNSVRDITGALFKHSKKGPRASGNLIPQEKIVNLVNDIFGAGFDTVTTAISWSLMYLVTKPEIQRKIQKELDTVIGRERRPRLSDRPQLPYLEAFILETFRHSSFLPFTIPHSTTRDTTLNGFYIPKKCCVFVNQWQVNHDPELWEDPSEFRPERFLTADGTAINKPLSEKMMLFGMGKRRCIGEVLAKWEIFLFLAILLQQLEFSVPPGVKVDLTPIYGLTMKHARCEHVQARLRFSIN

[3] = biological target: T2, human CYP2C9 (Homo sapiens, UniProt P11712); assay: biochemical; settings: for AC50: CYP2C9 AC50 (half-maximal activity concentration)
[4] = biological target: T3, human CYP2C19 (Homo sapiens, UniProt P33261); assay: biochemical; settings: for AC50: CYP2C19 AC50 (half-maximal activity concentration)
[5] = biological target: human CYP2D6 (Homo sapiens, UniProt P10635); assay: biochemical
[6] = biological target: CYP3A4 (Homo sapiens, UniProt P08684); assay: biochemical
[7] = biological target: T1, human CYP1A2
[8] = biological target: T2, human CYP2C9
[9] = biological target: T3, human CYP2C19
[10] = CYP2C9 IC50 (half-maximal inhibitory concentration)
[11] = CYP2C19 IC50 (half-maximal inhibitory concentration)
[12] = CYP2D6 IC50 (half-maximal inhibitory concentration)
[13] = CYP3A4 IC50 (half-maximal inhibitory concentration)
[14] = CYP1A2 IC50 (half-maximal inhibitory concentration)
[15] = CYP1A2 AC50 (half-maximal activity concentration)
[16] = CYP2D6 AC50 (half-maximal activity concentration)
[17] = CYP3A4 AC50 (half-maximal activity concentration)

T2 sequence (P11712 whole entry): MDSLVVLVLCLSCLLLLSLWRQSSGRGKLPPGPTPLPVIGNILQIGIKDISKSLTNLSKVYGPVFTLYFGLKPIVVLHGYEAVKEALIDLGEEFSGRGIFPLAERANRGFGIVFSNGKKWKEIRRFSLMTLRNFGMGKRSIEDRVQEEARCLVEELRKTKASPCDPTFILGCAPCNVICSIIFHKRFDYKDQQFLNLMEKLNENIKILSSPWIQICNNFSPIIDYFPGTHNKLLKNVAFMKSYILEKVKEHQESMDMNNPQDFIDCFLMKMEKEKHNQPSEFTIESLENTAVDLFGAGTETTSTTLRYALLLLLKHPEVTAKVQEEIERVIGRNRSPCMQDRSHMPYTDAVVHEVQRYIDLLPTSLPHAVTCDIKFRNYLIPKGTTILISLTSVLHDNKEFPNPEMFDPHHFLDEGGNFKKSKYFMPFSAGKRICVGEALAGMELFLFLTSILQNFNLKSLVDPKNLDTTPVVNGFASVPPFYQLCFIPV
T3 sequence (P33261 whole entry): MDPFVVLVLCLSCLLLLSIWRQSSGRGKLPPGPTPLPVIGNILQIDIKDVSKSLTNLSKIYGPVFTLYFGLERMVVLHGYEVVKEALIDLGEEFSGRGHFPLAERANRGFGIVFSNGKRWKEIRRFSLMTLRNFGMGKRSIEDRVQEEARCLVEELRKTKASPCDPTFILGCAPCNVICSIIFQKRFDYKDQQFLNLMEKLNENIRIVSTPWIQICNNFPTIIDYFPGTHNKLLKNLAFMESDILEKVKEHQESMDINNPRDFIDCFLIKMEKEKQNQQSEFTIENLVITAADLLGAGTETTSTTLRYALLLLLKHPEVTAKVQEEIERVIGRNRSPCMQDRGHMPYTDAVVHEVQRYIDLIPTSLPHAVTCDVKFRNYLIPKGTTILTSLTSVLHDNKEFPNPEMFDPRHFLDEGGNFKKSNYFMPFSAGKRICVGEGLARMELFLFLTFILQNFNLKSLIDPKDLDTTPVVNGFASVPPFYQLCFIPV
Sequence of human CYP2D6 (P10635 whole entry): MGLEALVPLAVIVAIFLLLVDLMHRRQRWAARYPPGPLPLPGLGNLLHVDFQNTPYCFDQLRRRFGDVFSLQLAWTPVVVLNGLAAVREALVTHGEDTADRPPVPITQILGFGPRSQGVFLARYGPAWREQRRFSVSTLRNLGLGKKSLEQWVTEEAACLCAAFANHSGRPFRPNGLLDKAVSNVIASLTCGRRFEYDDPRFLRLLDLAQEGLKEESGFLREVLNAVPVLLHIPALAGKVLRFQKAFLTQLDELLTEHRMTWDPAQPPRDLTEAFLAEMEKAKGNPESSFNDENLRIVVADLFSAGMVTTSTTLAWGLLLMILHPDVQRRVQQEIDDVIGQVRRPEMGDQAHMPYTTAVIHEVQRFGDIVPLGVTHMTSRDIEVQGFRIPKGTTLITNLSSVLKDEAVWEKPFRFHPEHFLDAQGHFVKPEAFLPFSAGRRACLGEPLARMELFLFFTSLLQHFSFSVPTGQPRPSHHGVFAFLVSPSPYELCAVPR
Sequence of CYP3A4 (P08684 whole entry): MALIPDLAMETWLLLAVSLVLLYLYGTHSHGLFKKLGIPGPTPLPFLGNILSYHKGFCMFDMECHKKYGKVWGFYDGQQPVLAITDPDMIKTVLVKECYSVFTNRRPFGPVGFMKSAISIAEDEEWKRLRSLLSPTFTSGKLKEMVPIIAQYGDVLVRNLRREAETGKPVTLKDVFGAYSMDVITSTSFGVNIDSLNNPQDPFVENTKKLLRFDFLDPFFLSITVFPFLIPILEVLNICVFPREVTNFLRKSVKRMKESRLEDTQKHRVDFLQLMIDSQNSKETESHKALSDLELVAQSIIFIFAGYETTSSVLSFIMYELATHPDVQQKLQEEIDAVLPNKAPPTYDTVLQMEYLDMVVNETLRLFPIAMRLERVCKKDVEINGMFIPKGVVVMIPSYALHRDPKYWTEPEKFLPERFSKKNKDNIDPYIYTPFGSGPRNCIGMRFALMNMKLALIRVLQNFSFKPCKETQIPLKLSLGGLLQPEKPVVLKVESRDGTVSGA
Sequence of Photinus pyralis (firefly) luciferase (P08659 whole entry): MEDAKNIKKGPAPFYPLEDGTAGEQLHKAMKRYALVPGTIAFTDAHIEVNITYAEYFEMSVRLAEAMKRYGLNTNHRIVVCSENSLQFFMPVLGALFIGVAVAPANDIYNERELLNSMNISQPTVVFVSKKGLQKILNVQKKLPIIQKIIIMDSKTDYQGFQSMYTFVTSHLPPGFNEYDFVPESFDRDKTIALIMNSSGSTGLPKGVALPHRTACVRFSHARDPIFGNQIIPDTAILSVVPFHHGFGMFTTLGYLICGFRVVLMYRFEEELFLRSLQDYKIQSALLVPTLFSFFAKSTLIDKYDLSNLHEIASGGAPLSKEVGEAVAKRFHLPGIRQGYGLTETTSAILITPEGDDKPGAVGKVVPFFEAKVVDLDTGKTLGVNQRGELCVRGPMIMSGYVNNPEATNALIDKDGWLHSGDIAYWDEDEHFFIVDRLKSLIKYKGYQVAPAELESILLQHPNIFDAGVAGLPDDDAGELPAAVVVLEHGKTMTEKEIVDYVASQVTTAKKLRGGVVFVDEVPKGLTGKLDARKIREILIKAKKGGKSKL

Structure (SMILES) | Luciferase IC50 (half-maximal inhibitory concentration) [1] | IC50 [3, 10] | IC50 [4, 11] | IC50 [5, 12] | IC50 [6, 13] | IC50 [2, 14] | AC50 [2, 15] | AC50 [4] | AC50 [5, 16] | AC50 [6, 17] | also measured
ClC1=C(Cl)C2(Cl)C3C4C=CC(C4)C3C1(Cl)C2(Cl)Cl (stereo not drawn) [Aldrin] |  |  |  |  |  |  |  |  |  |  | Luciferase IC50 [1]: Inactive; IC50 ([2]; CYP1A2 IC50): 35.5 µM; IC50 ([3]; CYP2C9 IC50): 33.6 µM; IC50 ([4]; CYP2C19 IC50): 27.8 µM; IC50 ([5]; CYP2D6 IC50): 44.9 µM; IC50 ([6]; CYP3A4 IC50): 0.28 µM
COc1ccc(C(O)(c2cncnc2)C2CC2)cc1 (stereo not drawn) [Ancymidol] | Inactive | 38.2 µM | 19.3 µM | 47 µM | 0.8 µM |  |  |  |  |  | CYP1A2 IC50 (half-maximal inhibitory concentration) [7]: Inactive
CC(C)(C)C(O)C(Oc1ccc(-c2ccccc2)cc1)n1cncn1 (stereo not drawn) [Bitertanol] | Inactive | 7.56 µM | 48.3 µM | 63.5 µM | 0.67 µM | 48.8 µM |  |  |  |  | 
Clc1ccc(C2(Cn3cncn3)CC(Br)CO2)c(Cl)c1 (stereo not drawn) [Bromuconazole] | Inactive | 3.35 µM | 0.12 µM | 21 µM | 0.08 µM | 21.7 µM |  |  |  |  | 
CCCCOCN(C(=O)CCl)c1c(CC)cccc1CC [Butachlor] | Inactive | 5.09 µM | 0.83 µM | 50.9 µM | 6.9 µM | 51.6 µM |  |  |  |  | 
CCOCn1c(-c2ccc(Cl)cc2)c(C#N)c(Br)c1C(F)(F)F [Chlorfenapyr] | Inactive | 9.71 µM | 4.66 µM | 33 µM | 37 µM | 0.6 µM |  |  |  |  | 
O=C1c2ccccc2C(=O)C1C(=O)C(c1ccccc1)c1ccc(Cl)cc1 (stereo not drawn) [Chlorophacinone] | Inactive | 0.76 µM | 11 µM | 44.9 µM | 33.6 µM | 8.52 µM | 8.52 µM | 11 µM | 44.9 µM | 33.6 µM | AC50 [3]: 0.76 µM
COc1cc(N)c(Cl)cc1C(=O)NC1CCN(Cc2ccccc2)CC1 [Clebopride maleate] | Inactive |  |  |  |  |  |  |  |  |  | CYP1A2 IC50 (half-maximal inhibitory concentration) [7]: Inactive; CYP2C9 IC50 (half-maximal inhibitory concentration) [8]: Inactive; IC50 [4]: 38.9 µM; IC50 [5]: 0.03 µM; IC50 [6]: 2.06 ± 0.47 µM
CCOP(=S)(OCC)SC(CCl)N1C(=O)c2ccccc2C1=O (stereo not drawn) [Dialifor] | Inactive |  | 0.38 µM |  | 1.65 µM | 68.4 µM |  |  |  |  | IC50 [3]: 1.13 µM; IC50 [5]: 38.5 µM
COC(=O)N(C(=O)N1CO[C@@]2(C(=O)OC)Cc3cc(Cl)ccc3C2=N1)c1ccc(OC(F)(F)F)cc1 [Indoxacarb] | Inactive | 3.35 µM | 0.17 µM | 14 µM | 2.61 µM |  |  |  |  |  | CYP1A2 IC50 (half-maximal inhibitory concentration) [7]: Inactive
Cc1ccnc2ccccc12 [Lepidine] |  |  |  |  |  |  |  |  |  |  | CYP2C9 AC50 (half-maximal activity concentration) [8]: Inconclusive activator; CYP2C19 AC50 (half-maximal activity concentration) [9]: Inconclusive; AC50 [2]: 38.4 µM; AC50 [5]: 61.3 µM; AC50 [6]: 31.1 µM
COc1cccc(C(=O)NN(C(=O)c2cc(C)cc(C)c2)C(C)(C)C)c1C [Methoxyfenozide] | Inactive | 18.1 µM | 3.43 µM | 44 µM | 0.74 µM |  |  |  |  |  | CYP1A2 IC50 (half-maximal inhibitory concentration) [7]: Inactive
CNC(=O)Oc1cc(C)cc(C(C)C)c1 [Promecarb] |  |  |  |  |  |  | 26.9 µM | 42.2 µM | 58.1 µM | 25.3 µM | CYP2C9 AC50 (half-maximal activity concentration) [8]: Inactive
O=C(CCN1CCC(c2ccccc2)C1)c1ccc2c(c1)OCCO2 (stereo not drawn) [Proroxan] |  |  |  |  |  |  | 32.3 µM | 39.1 µM | 2.28 µM | 28.8 µM | CYP2C9 AC50 (half-maximal activity concentration) [8]: Inconclusive inhibitor
Cc1ccccc1OP(=O)(Oc1ccccc1C)Oc1ccccc1C [Tri-o-cresyl phosphate] |  |  |  |  |  |  | 32 µM | 1.3 µM | 43.3 µM | 2.11 µM | AC50 [3]: 4.9 µM
COP(=O)(OC)O/C(=C\Cl)c1cc(Cl)c(Cl)cc1Cl [Z-Tetrachlorvinphos] |  |  |  |  |  |  | 2.28 µM | 5.82 µM | 56.6 µM | 2.49 µM | AC50 [3]: 38.8 µM
